Measurements reported in US6693165B2 (Merck & Co., Inc., priority 2000, dated 2004).
Numbered stars: 1 amine (or outer) side, 2 acyl side, 3 side chain; on linkers, the order of the positions; unused ones are H or OH. Bridge positions count the residues as written; N and C are the ends. Square brackets hold non-standard residues; d marks the D form. Peptide text beside a SMILES is read from it. dPhe(4-tBu) = CC(C)(C)c1ccc(C[C@@H](N)C(=O)O)cc1; dPhe(4-Cl) = N[C@H](Cc1ccc(Cl)cc1)C(=O)O; dPhe(4-F) = N[C@H](Cc1ccc(F)cc1)C(=O)O; d2Nal = N[C@H](Cc1ccc2ccccc2c1)C(=O)O; Maleoyl = O=C(/C=C\C(=O)[*:2])[*:1]; dBta = N[C@H](Cc1csc2ccccc12)C(=O)O; Suc = O=C(CCC(=O)[*:2])[*:1]; Dap = NC[C@H](N)C(=O)O

Key:
[1] = rats; cited from earlier work
[2] = biological target: T1, human MC4 receptor (Homo sapiens, UniProt P32245); test: Competitive binding assay, human MC4 receptor; conditions: for IC50: CHO cell membranes expressing human MC4 receptor, 200 pM [125I]-NDP-α-MSH, three independent experiments, read-out: hMC-4R (binding data); for 3:4: selectivity ratio of hMC-3R to hMC-4R binding values; for 5:4: selectivity ratio of hMC-5R to hMC-4R binding values
T1 construct: expressed in transfected cells; host or cells: Chinese hamster ovary (CHO) cells
Experimental: (§1) The peptides of the present invention were evaluated for antagonist activity in receptor binding assay. Crude membrane preparations were obtained from Chinese hamster ovary cells expressing human MC3, MC4, and MC5 receptors. Cells were rinsed with phosphate-buffered saline (PBS) lacking CaCl2 or MgCl2 (Life Technologies, Gaithersburg, Md., USA), and then detached with enzyme-free dissociation media (Specialty Media, Lavellette, N.J., USA). Cells were pelleted at 2800×g for 10 min and resuspended in membrane buffer (20 mM Tris, pH 7.2, 5 mM ethylenediaminetetraacetic acid) with 5 μg/ml leupeptin, 5 μg/ml aprotinin, 40 μg/ml bacitracin, and 25 μg/ml pefabloc (Boehringer Mannheim). The cells were […] with 10 strokes by using a motor-driven Teflon-coated pestle in a glass homogenizer at low speed. The resulting cell suspension was centrifuged at 4100×g, 4° C., for 20 min. The pellet was resuspended in fresh membrane buffer with protease inhibitors, aliquoted, snap-frozen in liquid nitrogen, and stored at −80° C. The resulting crude membranes were titrated to determine the optimal level necessary for performing binding studies.
(§2) Binding reactions (total volume=250 μl) contained MBB (50 mM Tris, pH 7.2, 2 mM CaCl2, 1 mM MgCl2), 0.1% bovine serum albumin, crude membranes prepared from cells expressing human MC3, MC4, or MC5 receptor, 200 pM of [125I]-NDP-α-MSH (Amersham, Arlington Heighs, Ill., USA), and increasing concentrations of unlabeled test compounds dissolved in dimethylsulfoxide (final concentration=2%). Reactions were incubated for 1 h without shaking and then filtered through 96-well filter plates (Packard), presoaked in 1% polyethyleneimine. Filters were washed 3 times with TNE buffer (50 mM Tris, pH 7.4, 5 mM ethylene-diaminetetraacetic acid, 150 mM NaCl), dried and counted by using Microscint-20 in a Topcount scintillation counter (Packard).

[3] = biological target: T2, human MC5 receptor (Homo sapiens, UniProt P33032); test: Competitive binding assay, human MC5 receptor; conditions: CHO cell membranes expressing human MC5 receptor; 200 pM [125I]-NDP-α-MSH; three independent experiments; read-out: hMC-5R (binding data)
T2 construct: expressed in transfected cells; host or cells: Chinese hamster ovary (CHO) cells
Experimental: as §1, §2

[4] = biological target: human MC3 receptor (Homo sapiens, UniProt P41968); test: Competitive binding assay, human MC3 receptor; conditions: hMC-3R (binding data), CHO cell membranes expressing human MC3 receptor; 200 pM [125I]-NDP-α-MSH; three independent experiments
Sequence of human MC3 receptor (P41968 whole entry): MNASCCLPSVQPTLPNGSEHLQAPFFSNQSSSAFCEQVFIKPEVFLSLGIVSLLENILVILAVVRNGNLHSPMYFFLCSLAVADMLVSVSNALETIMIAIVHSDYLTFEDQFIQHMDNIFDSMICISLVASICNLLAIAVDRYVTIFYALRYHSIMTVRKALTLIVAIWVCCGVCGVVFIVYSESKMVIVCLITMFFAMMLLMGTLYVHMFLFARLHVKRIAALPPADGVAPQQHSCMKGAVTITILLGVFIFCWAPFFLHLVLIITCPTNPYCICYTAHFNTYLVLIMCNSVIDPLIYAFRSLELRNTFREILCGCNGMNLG

T2 sequence (P33032 whole entry): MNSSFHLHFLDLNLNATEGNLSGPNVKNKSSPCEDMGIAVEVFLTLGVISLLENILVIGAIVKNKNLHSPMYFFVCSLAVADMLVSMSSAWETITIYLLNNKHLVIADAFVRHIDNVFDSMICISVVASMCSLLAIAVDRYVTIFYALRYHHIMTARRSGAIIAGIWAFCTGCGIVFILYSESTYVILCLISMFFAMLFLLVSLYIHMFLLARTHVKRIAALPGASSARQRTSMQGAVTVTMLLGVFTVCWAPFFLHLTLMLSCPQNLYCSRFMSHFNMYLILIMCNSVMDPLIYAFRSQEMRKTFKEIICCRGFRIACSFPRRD
T1 sequence (P32245 whole entry): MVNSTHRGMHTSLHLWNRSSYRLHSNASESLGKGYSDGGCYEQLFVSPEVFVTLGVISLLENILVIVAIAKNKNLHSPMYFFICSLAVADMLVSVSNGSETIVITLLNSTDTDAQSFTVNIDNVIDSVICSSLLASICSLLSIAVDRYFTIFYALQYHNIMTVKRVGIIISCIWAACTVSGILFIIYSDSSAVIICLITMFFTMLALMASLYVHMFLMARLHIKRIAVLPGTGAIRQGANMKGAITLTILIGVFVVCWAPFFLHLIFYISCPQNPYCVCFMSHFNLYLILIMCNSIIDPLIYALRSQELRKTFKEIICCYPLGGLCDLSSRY

| IC50 [2] [µM] | 3:4 [2] | 5:4 [2] | IC50 [3] [µM] | IC50 [4] [µM] | Compound | body weight [1] | food intake [1] |
| --- | --- | --- | --- | --- | --- | --- | --- |
| – | – | – | – | – | HS024 | increase | increase |
| 0.0006 ± 0.0001 | 216 | 316 | 0.19 ± 0.037 | 0.13 ± 0.016 | N=C(N)NCCC[C@@H]1NC(=O)[C@@H](Cc2ccc3ccccc3c2)NC(=O)C2CC2C(=O)NCCCC[C@@H](C(N)=O)NC(=O)[C@H](Cc2c[nH]c3ccccc23)NC1=O (single isomer, unassigned) [11 a] | – | – |
| 0.0035 ± 0.0003 | 163 | 126 | 0.44 ± 0.24 | 0.57 ± 0.29 | N=C(N)NCCC[C@@H]1NC(=O)[C@@H](Cc2ccc(Cl)cc2)NC(=O)CCC(=O)NCCCC[C@@H](C(N)=O)NC(=O)[C@H](Cc2c[nH]c3ccccc23)NC1=O [Example 17] ([dPhe(4-Cl)]RWK-NH2; linker N-4 via Suc) | – | – |
| 0.0016 ± 0.0002 | 168 | 337 | 0.54 ± 0.23 | 0.27 ± 0.024 | N=C(N)NCCC[C@@H]1NC(=O)[C@@H](Cc2ccc3ccccc3c2)NC(=O)C2CC2C(=O)NCCCC[C@@H](C(N)=O)NC(=O)[C@H](Cc2c[nH]c3ccccc23)NC1=O (single isomer, unassigned) [11 b] | – | – |
| 0.0017 ± 0.0008 | 9 | 14 | 0.024 ± 0.0067 | 0.016 ± 0.0052 | N=C(N)NCCC[C@@H]1NC(=O)[C@@H](Cc2ccc3ccccc3c2)NC(=O)[C@H](Cc2c[nH]cn2)NC(=O)[C@@H](N)CC(=O)NCCCC[C@@H](C(N)=O)NC(=O)[C@H](Cc2c[nH]c3ccccc23)NC1=O [Example 3] | – | – |
| 0.046 ± 0.006 | 37 | 54 | 2.5 ± 1 | 1.5 ± 1.1 | CC(C)(C)c1ccc(C[C@H]2NC(=O)CCC(=O)NCCCC[C@@H](C(N)=O)NC(=O)[C@H](Cc3c[nH]c4ccccc34)NC(=O)[C@H](CCCNC(=N)N)NC2=O)cc1 [Example 14] ([dPhe(4-tBu)]RWK-NH2; linker N-4 via Suc) | – | – |
| 0.04 ± 0.005 | 75 | 250 | 10 ± 8.7 | 3 ± 1.1 | N=C(N)NCCC[C@@H]1NC(=O)[C@@H](Cc2ccc3ccccc3c2)NC(=O)[C@H](CCCCN)NC(=O)CCC(=O)NCCCC[C@@H](C(N)=O)NC(=O)[C@H](Cc2c[nH]c3ccccc23)NC1=O [Example 24] (K[d2Nal]RWK-NH2; linker N-5 via Suc) | – | – |
| 0.069 ± 0.012 | 81 | 44 | 3 ± 1 | 5.6 ± 3.9 | N=C(N)NCCC[C@@H]1NC(=O)[C@@H](Cc2csc3ccccc23)NC(=O)CCC(=O)NCCCC[C@@H](C(N)=O)NC(=O)[C@H](Cc2c[nH]c3ccccc23)NC1=O [Example 16] ([dBta]RWK-NH2; linker N-4 via Suc) | – | – |
| 0.044 ± 0.007 | 84 | 48 | 2.1 ± 0.5 | 3.7 ± 1.2 | NCCCC[C@@H]1NC(=O)[C@@H](Cc2ccc3ccccc3c2)NC(=O)CCC(=O)NCCCC[C@@H](C(N)=O)NC(=O)[C@H](Cc2c[nH]c3ccccc23)NC1=O [Example 20] ([d2Nal]KWK-NH2; linker N-4 via Suc) | – | – |
| 0.07 ± 0.01 | 69 | 143 | 10 ± 2 | 4.8 ± 1 | N=C(N)NCCC[C@@H]1NC(=O)[C@@H](Cc2ccc(F)cc2)NC(=O)CCC(=O)NCCCC[C@@H](C(N)=O)NC(=O)[C@H](Cc2c[nH]c3ccccc23)NC1=O [Example 19] ([dPhe(4-F)]RWK-NH2; linker N-4 via Suc) | – | – |
| – | – | – | – | – | SHU9119 | increased | increased |
| 0.001 ± 0.0001 | 52 | 200 | 0.2 ± 0.0036 | 0.052 ± 0.0079 | N=C(N)NCCC[C@@H]1NC(=O)[C@@H](Cc2ccc3ccccc3c2)NC(=O)[C@H](Cc2c[nH]cn2)NC(=O)CCC(=O)NCCCC[C@@H](C(N)=O)NC(=O)[C@H](Cc2c[nH]c3ccccc23)NC1=O [Example 7] (H[d2Nal]RWK-NH2; linker N-5 via Suc) | – | – |
| – | – | – | – | – | MTII | – | reduced |
| – | 300 | 270 | – | – | N=C(N)NCCC[C@@H]1NC(=O)[C@@H](Cc2ccc3ccccc3c2)NC(=O)/C=C\C(=O)NCCCC[C@@H](C(N)=O)NC(=O)[C@H](Cc2c[nH]c3ccccc23)NC1=O [Example 12] ([d2Nal]RWK-NH2; linker N-4 via Maleoyl) | – | – |
| 0.0047 ± 0.0006 | 46 | 234 | 1.1 ± 0.15 | 0.22 ± 0.0067 | CC(=O)N[C@H]1CC(=O)NCCCC[C@@H](C(N)=O)NC(=O)[C@H](Cc2c[nH]c3ccccc23)NC(=O)[C@H](CCCNC(=N)N)NC(=O)[C@@H](Cc2ccc3ccccc3c2)NC1=O [Example 6] (Ac-D[d2Nal]RWK-NH2; lactam 1-5) | – | – |
| 0.0002 ± 3e-05 | 95 | 355 | 0.071 ± 0.0084 | 0.019 ± 0.0015 | N=C(N)NCCC[C@@H]1NC(=O)[C@@H](Cc2ccc3ccccc3c2)NC(=O)[C@H](Cc2c[nH]cn2)NC(=O)CCC(=O)NC[C@@H](C(N)=O)NC(=O)[C@H](Cc2c[nH]c3ccccc23)NC1=O [Example 8] (H[d2Nal]RW[Dap]-NH2; linker N-5 via Suc) | – | – |
